The source of these data is ChEMBL document CHEMBL4800726, “Data for DCP probe MSC-4381” (2021).

The inhibition is the drop in the measured response relative to a control, in per cent.

In assay [1] the target is GABA-A receptor; anion channel (Rattus norvegicus) (UniProt O09028+P15431+P18506+P18508+P19969+P20236+P23574+P23576+P28471+P28473+P30191+P62813+P63079+P63138+Q91ZM7+Q9ES14). Nature of the assay: BZD (central) Eurofins-Cerep binding assay. Format: protein-complex assay. Also noted: ligand concentration 0.4 nM. The following applies: filed as agonist, Compound concentration 10.0 uM.

The target of assay [2] is C-X-C chemokine receptor type 2 (Homo sapiens) (UniProt P25025). Put plainly: CXCR2 (IL-8B) (h) Eurofins-Cerep binding assay. Further details: ligand concentration 0.025 nM. The following applies: filed as agonist, Compound concentration 10.0 uM.
The target in assay [3] is Melatonin receptor type 1A (Homo sapiens) (UniProt P48039). Nature of the assay: MT1 (ML1A) (h) Eurofins-Cerep binding assay. Also noted: ligand concentration 0.01 nM. The conditions noted are these: filed as agonist, Compound concentration 10.0 uM.
Assay [4] has as its target T1, Muscarinic acetylcholine receptor M1 (Homo sapiens) (UniProt P11229).
T1 sequence (whole entry): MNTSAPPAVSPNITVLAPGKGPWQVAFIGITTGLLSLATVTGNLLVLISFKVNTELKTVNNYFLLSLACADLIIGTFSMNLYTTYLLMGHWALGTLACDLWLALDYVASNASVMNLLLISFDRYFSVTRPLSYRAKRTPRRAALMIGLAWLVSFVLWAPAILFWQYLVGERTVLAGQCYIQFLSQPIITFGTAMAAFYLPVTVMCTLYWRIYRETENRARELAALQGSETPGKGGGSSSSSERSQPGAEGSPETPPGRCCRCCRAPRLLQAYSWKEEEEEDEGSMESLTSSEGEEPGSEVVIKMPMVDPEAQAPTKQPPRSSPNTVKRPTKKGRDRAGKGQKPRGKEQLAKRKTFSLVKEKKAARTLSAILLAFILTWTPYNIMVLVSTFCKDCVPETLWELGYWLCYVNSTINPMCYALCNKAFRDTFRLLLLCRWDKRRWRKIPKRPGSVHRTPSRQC
Nature of the assay: M1 (h) Eurofins-Cerep binding assay. The following applies: filed as antagonist, Compound concentration 10.0 uM. Also noted: ligand concentration 2 nM.

In assay [5] the target is Neuromedin-K receptor (Homo sapiens) (UniProt P29371). Put plainly: NK3 (h) Eurofins-Cerep binding assay. Further details: ligand concentration 0.4 nM. The following applies: filed as antagonist, Compound concentration 10.0 uM.
Assay [6] has as its target Neuropeptide Y receptor type 1 (Homo sapiens) (UniProt P25929). Nature of the assay: Y1 (h) Eurofins-Cerep binding assay. Further details: ligand concentration 0.025 nM. The following applies: filed as agonist, Compound concentration 10.0 uM.
Assay [7] has as its target 5-hydroxytryptamine receptor 1B (Homo sapiens) (UniProt P28222). Nature of the assay: 5-HT1B(h) Eurofins-Cerep binding assay. Also noted: ligand concentration 1 nM. The conditions noted are these: filed as antagonist, Compound concentration 10.0 uM.
The target of assay [8] is T2, 5-hydroxytryptamine receptor 3A (Homo sapiens) (UniProt P46098).
T2 sequence (whole entry): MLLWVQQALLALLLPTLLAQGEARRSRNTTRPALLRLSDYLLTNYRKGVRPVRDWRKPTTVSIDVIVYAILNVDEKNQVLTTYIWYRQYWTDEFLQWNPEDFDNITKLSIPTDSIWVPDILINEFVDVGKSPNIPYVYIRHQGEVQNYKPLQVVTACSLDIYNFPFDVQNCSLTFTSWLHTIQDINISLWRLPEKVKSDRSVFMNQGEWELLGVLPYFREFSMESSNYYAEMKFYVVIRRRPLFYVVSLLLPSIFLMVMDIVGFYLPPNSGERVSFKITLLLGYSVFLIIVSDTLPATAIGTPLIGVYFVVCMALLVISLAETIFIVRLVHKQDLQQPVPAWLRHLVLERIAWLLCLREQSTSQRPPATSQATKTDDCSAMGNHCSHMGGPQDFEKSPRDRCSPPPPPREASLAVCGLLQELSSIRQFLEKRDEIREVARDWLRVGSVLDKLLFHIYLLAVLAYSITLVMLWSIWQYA
Put plainly: 5-HT3 (h) Eurofins-Cerep binding assay. Further details: ligand concentration 0.5 nM. The following applies: filed as antagonist, Compound concentration 10.0 uM.

Assay [9] has as its target Sodium-dependent noradrenaline transporter (Homo sapiens) (UniProt P23975). Put plainly: norepinephrine transporter (h) Eurofins-Cerep binding assay. Also noted: ligand concentration 1 nM. The conditions noted are these: filed as antagonist, Compound concentration 10.0 uM.
The target in assay [10] is Sodium-dependent dopamine transporter (Homo sapiens, UniProt Q01959). Nature of the assay: dopamine transporter (h) Eurofins-Cerep binding assay. Further details: ligand concentration 4 nM. The following applies: filed as antagonist, Compound concentration 10.0 uM.
In assay [11] the target is 5-hydroxytryptamine receptor 2B (Homo sapiens) (UniProt P41595). The conditions noted are these: Compound concentration 10.0 uM.
5-hydroxytryptamine receptor 2B (Homo sapiens), sequence (P41595 whole entry): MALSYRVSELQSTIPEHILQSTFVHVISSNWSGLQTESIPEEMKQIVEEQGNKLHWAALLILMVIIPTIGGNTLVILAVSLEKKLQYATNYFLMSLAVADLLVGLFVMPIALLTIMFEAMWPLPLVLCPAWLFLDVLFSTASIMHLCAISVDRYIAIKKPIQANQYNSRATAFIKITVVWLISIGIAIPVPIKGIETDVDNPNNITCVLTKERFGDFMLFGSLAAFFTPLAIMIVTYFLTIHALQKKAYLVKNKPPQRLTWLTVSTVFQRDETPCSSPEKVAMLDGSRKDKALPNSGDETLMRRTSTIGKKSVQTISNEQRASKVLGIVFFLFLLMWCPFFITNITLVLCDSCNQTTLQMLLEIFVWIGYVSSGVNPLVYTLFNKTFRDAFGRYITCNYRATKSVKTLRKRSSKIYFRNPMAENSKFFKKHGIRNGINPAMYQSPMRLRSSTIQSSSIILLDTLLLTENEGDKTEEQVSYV
Assay [12] concerns the target T3, 5-hydroxytryptamine receptor 6 (Homo sapiens, UniProt P50406). The conditions noted are these: Compound concentration 10.0 uM.
Assay [13] concerns the target 5-hydroxytryptamine receptor 7 (Homo sapiens) (UniProt P34969). The following applies: Compound concentration 10.0 uM.
Assay [14] concerns the target D(4) dopamine receptor (Homo sapiens) (UniProt P21917). The conditions noted are these: Compound concentration 10.0 uM.
In assay [15] the target is Sodium-dependent serotonin transporter (Homo sapiens) (UniProt P31645). The conditions noted are these: Compound concentration 10.0 uM.
Sodium-dependent serotonin transporter (Homo sapiens), sequence (P31645 whole entry, looked up): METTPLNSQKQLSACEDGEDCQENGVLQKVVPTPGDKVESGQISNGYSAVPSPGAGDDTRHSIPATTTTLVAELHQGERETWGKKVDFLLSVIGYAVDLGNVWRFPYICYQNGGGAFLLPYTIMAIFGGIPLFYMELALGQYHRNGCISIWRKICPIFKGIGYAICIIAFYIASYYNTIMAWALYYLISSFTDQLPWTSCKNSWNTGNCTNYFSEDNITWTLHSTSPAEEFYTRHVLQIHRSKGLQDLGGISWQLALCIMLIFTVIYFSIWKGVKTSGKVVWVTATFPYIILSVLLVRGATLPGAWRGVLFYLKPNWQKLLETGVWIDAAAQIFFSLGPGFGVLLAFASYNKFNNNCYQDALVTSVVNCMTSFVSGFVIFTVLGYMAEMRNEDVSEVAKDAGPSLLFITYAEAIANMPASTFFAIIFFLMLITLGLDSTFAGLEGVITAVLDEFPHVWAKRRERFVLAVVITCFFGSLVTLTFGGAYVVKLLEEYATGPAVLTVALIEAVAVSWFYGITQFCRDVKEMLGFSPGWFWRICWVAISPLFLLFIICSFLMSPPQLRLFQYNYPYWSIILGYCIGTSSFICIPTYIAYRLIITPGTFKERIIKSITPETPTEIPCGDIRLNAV
The target in assay [16] is Delta-type opioid receptor (Homo sapiens, UniProt P41143). The following applies: Compound concentration 10.0 uM.
Delta-type opioid receptor, sequence (P41143 whole entry): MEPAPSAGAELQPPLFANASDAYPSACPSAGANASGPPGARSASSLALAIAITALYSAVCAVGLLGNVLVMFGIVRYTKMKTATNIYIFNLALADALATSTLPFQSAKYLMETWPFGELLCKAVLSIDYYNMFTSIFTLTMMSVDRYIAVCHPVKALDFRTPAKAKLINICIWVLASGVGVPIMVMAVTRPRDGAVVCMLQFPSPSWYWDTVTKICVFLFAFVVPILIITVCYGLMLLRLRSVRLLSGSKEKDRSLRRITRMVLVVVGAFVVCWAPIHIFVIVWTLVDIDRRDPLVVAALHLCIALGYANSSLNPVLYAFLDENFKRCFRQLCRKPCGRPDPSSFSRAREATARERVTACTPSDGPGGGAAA
In assay [17] the target is Histamine H1 receptor (Homo sapiens) (UniProt P35367). The following applies: Compound concentration 10.0 uM.
Histamine H1 receptor (Homo sapiens), sequence (P35367 whole entry): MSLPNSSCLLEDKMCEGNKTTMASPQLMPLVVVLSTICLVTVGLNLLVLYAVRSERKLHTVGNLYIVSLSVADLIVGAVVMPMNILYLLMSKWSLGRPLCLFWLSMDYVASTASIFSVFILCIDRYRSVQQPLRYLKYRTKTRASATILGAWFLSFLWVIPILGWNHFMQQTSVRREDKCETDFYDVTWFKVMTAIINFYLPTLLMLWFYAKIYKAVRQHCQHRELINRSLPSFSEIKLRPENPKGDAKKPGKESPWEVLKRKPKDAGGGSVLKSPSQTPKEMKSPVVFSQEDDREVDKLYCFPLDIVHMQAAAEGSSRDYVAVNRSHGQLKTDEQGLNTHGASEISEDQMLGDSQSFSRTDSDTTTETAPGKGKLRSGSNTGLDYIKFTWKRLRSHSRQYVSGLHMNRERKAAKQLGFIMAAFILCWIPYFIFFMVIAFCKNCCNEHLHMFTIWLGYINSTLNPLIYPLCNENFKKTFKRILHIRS
The target of assay [18] is Alpha-1A adrenergic receptor (Homo sapiens) (UniProt P35348). The following applies: Compound concentration 10.0 uM.
Alpha-1A adrenergic receptor (Homo sapiens), sequence (P35348 whole entry): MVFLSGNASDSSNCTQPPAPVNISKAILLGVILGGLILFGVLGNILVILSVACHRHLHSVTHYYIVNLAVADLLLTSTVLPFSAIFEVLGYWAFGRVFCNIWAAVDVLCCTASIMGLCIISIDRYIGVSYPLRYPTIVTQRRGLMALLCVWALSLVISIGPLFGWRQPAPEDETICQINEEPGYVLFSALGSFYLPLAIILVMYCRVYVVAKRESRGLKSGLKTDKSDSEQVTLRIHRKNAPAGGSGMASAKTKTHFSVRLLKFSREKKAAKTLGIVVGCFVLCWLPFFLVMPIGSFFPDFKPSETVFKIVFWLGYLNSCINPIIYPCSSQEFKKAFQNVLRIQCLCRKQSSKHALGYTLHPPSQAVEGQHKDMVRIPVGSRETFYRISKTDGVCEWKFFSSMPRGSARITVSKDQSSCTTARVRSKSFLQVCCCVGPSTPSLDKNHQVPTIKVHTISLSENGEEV
The target of assay [19] is Alpha-2A adrenergic receptor (Homo sapiens) (UniProt P08913). The following applies: Compound concentration 10.0 uM.
Alpha-2A adrenergic receptor (Homo sapiens), sequence (P08913 whole entry): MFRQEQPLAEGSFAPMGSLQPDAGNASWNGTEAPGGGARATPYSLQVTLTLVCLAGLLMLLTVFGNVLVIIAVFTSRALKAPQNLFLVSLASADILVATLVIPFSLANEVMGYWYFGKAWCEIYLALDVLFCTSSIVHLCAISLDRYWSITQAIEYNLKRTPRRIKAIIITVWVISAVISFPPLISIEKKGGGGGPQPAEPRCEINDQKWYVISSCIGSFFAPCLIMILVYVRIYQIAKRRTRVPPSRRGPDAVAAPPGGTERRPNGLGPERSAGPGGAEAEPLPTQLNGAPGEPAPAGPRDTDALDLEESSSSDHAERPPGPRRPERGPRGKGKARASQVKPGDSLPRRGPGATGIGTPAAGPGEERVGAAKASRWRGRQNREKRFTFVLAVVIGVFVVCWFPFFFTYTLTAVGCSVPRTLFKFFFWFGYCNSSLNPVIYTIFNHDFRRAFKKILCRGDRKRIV
Assay [20] deals with Muscarinic acetylcholine receptor M4 (Homo sapiens) (UniProt P08173). The following applies: Compound concentration 10.0 uM.
Muscarinic acetylcholine receptor M4 (Homo sapiens), sequence (P08173 whole entry): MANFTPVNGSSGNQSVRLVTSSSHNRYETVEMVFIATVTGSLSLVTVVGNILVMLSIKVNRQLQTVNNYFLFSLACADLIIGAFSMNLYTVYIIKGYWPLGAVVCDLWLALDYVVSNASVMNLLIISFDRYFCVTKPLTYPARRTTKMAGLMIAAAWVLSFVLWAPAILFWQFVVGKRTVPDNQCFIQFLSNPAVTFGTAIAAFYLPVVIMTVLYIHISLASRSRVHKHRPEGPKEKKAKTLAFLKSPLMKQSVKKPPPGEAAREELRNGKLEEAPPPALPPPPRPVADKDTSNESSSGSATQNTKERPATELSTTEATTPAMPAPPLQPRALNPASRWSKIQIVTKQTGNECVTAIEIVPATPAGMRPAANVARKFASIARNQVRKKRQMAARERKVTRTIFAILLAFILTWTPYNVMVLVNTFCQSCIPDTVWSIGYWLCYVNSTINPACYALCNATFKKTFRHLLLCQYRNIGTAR
The target of assay [21] is T4, Muscarinic acetylcholine receptor M5 (Homo sapiens) (UniProt P08912).
T4 sequence (whole entry): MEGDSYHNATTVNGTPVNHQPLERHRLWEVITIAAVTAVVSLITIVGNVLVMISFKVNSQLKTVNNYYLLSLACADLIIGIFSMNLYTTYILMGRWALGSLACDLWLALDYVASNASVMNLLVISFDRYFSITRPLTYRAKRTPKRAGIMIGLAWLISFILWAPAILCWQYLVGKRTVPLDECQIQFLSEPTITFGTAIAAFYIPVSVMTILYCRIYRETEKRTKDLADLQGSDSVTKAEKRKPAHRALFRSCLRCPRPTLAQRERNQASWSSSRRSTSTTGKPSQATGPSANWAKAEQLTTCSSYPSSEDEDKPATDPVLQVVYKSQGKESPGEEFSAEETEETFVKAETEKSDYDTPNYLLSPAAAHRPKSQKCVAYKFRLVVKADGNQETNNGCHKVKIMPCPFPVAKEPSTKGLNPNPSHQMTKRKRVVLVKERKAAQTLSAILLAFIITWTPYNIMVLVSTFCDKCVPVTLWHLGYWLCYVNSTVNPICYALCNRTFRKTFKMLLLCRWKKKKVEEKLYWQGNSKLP
The following applies: Compound concentration 10.0 uM.

Assay [22] concerns the target T3, 5-hydroxytryptamine receptor 6. Nature of the assay: GPCRScan assay: inhibition of 5-HT6. Further details: radioligand conc. used [nm] 2.0 – 4.0, parental cells stable HEK.
For assay [23], the target named is 5-hydroxytryptamine receptor 1D (Homo sapiens) (UniProt P28221). The conditions noted are these: Compound concentration 10.0 uM.
In assay [24] the target is 5-hydroxytryptamine receptor 5A (Homo sapiens, UniProt P47898). The following applies: Compound concentration 10.0 uM.
Assay [25] has as its target Histamine H3 receptor (Homo sapiens) (UniProt Q9Y5N1). The conditions noted are these: Compound concentration 10.0 uM.

T3 sequence (P50406 whole entry): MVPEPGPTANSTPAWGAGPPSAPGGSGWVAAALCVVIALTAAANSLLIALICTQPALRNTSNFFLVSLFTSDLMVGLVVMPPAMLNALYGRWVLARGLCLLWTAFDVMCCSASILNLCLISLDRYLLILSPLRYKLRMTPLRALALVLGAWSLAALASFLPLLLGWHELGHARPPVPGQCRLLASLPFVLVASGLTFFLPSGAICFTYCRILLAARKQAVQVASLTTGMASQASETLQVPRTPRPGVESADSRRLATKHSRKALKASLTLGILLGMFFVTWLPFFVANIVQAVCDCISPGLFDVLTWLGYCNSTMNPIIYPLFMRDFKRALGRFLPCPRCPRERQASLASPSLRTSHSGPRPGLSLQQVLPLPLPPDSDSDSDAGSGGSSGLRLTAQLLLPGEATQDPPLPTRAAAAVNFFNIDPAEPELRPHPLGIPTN
D(4) dopamine receptor (Homo sapiens), sequence (P21917 whole entry): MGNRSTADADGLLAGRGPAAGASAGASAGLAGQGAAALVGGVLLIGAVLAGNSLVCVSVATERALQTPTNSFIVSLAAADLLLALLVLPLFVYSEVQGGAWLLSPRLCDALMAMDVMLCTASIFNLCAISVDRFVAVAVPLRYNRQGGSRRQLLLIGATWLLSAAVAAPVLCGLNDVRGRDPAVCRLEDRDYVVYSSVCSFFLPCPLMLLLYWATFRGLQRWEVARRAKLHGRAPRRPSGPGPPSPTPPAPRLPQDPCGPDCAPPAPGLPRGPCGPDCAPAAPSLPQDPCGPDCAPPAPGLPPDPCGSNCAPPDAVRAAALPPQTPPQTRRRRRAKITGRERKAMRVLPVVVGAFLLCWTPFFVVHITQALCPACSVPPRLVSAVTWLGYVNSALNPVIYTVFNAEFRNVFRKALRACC
5-hydroxytryptamine receptor 7 (Homo sapiens), sequence (P34969 whole entry): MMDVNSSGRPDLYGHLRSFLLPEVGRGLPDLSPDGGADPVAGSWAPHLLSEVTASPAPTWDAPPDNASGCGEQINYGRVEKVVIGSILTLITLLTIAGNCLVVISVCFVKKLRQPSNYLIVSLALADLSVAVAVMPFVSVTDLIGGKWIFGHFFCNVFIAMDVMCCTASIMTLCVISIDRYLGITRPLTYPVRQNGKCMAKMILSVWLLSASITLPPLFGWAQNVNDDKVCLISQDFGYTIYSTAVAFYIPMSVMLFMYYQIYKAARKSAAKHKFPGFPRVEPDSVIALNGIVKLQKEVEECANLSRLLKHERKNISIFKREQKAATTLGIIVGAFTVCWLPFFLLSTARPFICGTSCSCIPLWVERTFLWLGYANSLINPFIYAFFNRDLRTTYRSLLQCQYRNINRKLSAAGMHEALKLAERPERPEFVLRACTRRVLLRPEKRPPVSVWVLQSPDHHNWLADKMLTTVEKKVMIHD

Turning to `CCOc1ccc(S(=O)(=O)Nc2ccc(Cl)cc2C#Cc2cnc(C(=O)O)cc2OC)c2ncccc12` [MSC-4381], the % Inhibition of Control Specific Binding (Mean n=2) in assay [1] is -7.6%; in assay [2] it was 7.3%; in assay [3], 15.3%; in [4], 4.6%; in [5], -8.7%; in assay [6] it was -7.5%. Besides, the % Inhibition of Control Specific Binding (Mean n=2) in [7] is -15.6%; in assay [8], -8%; in [9], 30.4%; in assay [10], 7.8%. The inhibition in assay [11] was 8.83%; in [12], 25.9%; in assay [13] it was 2.02%; in [14] it was 4.2%; in assay [15], 6.49%; in [16], -8.88%. Besides, the inhibition in [17] is 21.7%; in assay [18], 13.3%; in [19], 26%; in assay [20], 4.24%; in assay [21] it was -6.26%.

As to `COc1cc(C(=O)O)ncc1C#Cc1ccccc1NS(=O)(=O)c1cccc2c(N(C)C)ccnc12` [MSC-0516], the Ki in assay [22] (read-out: Ki) was 1520 nM; in assay [22] (read-out: pKi (converted)), 1450 nM. Besides, the inhibition in [23] was 11.4%; in assay [11], 34.9%; in assay [24], 12.2%; in assay [12], 65.5%; in assay [13], -2.53%; in assay [14], 4.65%. Besides, the inhibition is 3.99% in assay [15]; 84.3% in [16]; -1.47% in [17]; 6.76% in assay [25]; 13.7% in assay [18]; 44.4% in assay [19]. Besides, the figures for the inhibition in assay [20] and in [21] were -5.83% and -3.36%, respectively.
